Reference: ChEMBL document CHEMBL1201862, “PubChem BioAssay data set” (2004)
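Results reflect a 48-hour exposure of cells in 96-well plates to compound at five concentrations. GI50 = concentration required for 50% inhibition of growth.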 Calls of active or inactive are those of the source. Cut-off read from the data, not from the text of the source: active = GI50 up to about 1.1 µM and inactive = higher.

Key:
Test in all cases: NCI-60 cell line screen, 48 h
[1] = tested on: UO-31
[2] = tested on: HCT-116
[3] = tested on: IGROV-1
[4] = tested on: SF-268
[5] = tested on: HOP-18
[6] = tested on: MOLT-4
[7] = tested on: NCI-H226
[8] = tested on: OVCAR-3
[9] = tested on: OVCAR-4
[10] = tested on: SW-620
[11] = tested on: ACHN
[12] = tested on: RXF 393
[13] = tested on: UACC-62
[14] = tested on: K562
[15] = tested on: KM12
[16] = tested on: DLD-1
[17] = tested on: M19-MEL
[18] = tested on: SK-MEL-2
[19] = tested on: TK-10
[20] = tested on: HCT-15
[21] = tested on: A498
[22] = tested on: SF-295
[23] = tested on: SK-MEL-28
[24] = tested on: XF498
[25] = tested on: HT-29
[26] = tested on: LXFL 529
[27] = tested on: SF-539
[28] = tested on: HL-60
[29] = tested on: SK-MEL-5
[30] = tested on: OVCAR-8
[31] = tested on: CCRF-CEM
[32] = tested on: DMS-114
[33] = tested on: SNB-78
[34] = tested on: M14
[35] = tested on: DMS-273
[36] = tested on: SN12C
[37] = tested on: NCI-H23
[38] = tested on: SNB-75
[39] = tested on: UACC-257
[40] = tested on: A549
[41] = tested on: LOX IMVI
[42] = tested on: NCI-H460
[43] = tested on: Malme-3M
[44] = tested on: SR
[45] = tested on: EKVX
[46] = tested on: RPMI-8226
[47] = tested on: OVCAR-5
[48] = tested on: SNB-19
[49] = tested on: HOP-92
[50] = tested on: HCC 2998
[51] = tested on: SK-OV-3
[52] = tested on: HOP-62
[53] = tested on: KM-20L2
[54] = tested on: U-251
[55] = tested on: 786-0

O=C1OC2(CC1C1(O)C3CC4CC(C3)CC1C4)C1CC3CC(C1)CC2C3 (stereo not given)
GI50 [1]: > 100 µM (inactive) | GI50 [2]: 49.7 µM (inactive) | GI50 [3]: 77.6 µM (inactive) | GI50 [4]: > 100 µM (inactive) | GI50 [5]: 6.61 µM (inactive) | GI50 [6]: > 100 µM (inactive) | GI50 [7]: > 100 µM (inactive) | GI50 [8]: 44.6 µM (inactive) | GI50 [9]: 22.1 µM (inactive) | GI50 [10]: 65.9 µM (inactive) | GI50 [11]: > 100 µM (inactive) | GI50 [12]: > 100 µM (inactive) | GI50 [13]: > 100 µM (inactive) | GI50 [14]: > 100 µM (inactive) | GI50 [15]: > 100 µM (inactive) | GI50 [16]: > 100 µM (inactive) | GI50 [17]: > 100 µM (inactive) | GI50 [18]: > 100 µM (inactive) | GI50 [19]: > 100 µM (inactive) | GI50 [20]: > 100 µM | GI50 [21]: 28.1 µM (inactive) | GI50 [22]: 14.5 µM (inactive) | GI50 [23]: > 100 µM (inactive) | GI50 [24]: 9.77 µM (inactive) | GI50 [25]: > 100 µM (inactive) | GI50 [26]: > 100 µM (inactive) | GI50 [27]: > 100 µM (inactive) | GI50 [28]: > 100 µM (inactive) | GI50 [29]: 38.3 µM (inactive) | GI50 [30]: 35.1 µM (inactive) | GI50 [31]: 85.1 µM (inactive) | GI50 [32]: 82 µM (inactive) | GI50 [33]: > 100 µM (inactive) | GI50 [34]: > 100 µM (inactive) | GI50 [35]: > 100 µM (inactive) | GI50 [36]: 65.3 µM (inactive) | GI50 [37]: > 100 µM (inactive) | GI50 [38]: 40.8 µM (inactive) | GI50 [39]: > 100 µM (inactive) | GI50 [40]: 56.4 µM (inactive) | GI50 [41]: 27.9 µM (inactive) | GI50 [42]: 32.1 µM (inactive) | GI50 [43]: 58.3 µM (inactive)

CCOC(=O)CN1C(=O)c2cccc3cc([N+](=O)[O-])cc(c23)C1=O
GI50 [1]: 14 µM (inactive) | GI50 [2]: 1.63 µM (inactive) | GI50 [3]: 3.97 µM (inactive) | GI50 [4]: 3.37 µM (inactive) | GI50 [44]: 0.0525 µM (active) | GI50 [45]: 15.2 µM (inactive) | GI50 [46]: 1.81 µM (inactive) | GI50 [5]: 19.7 µM (inactive) | GI50 [6]: 0.373 µM (active) | GI50 [7]: 10.7 µM (inactive) | GI50 [47]: 15.5 µM (inactive) | GI50 [8]: 4.7 µM (inactive) | GI50 [9]: 1.85 µM (inactive) | GI50 [10]: 1.59 µM (inactive) | GI50 [11]: 10.1 µM (inactive) | GI50 [48]: 18.2 µM (inactive) | GI50 [12]: 1.84 µM (inactive) | GI50 [13]: 2.4 µM (inactive) | GI50 [14]: 0.459 µM (active) | GI50 [15]: 2.52 µM (inactive) | GI50 [49]: 2.19 µM (inactive) | GI50 [16]: 2.21 µM (inactive) | GI50 [50]: 4.23 µM (inactive) | GI50 [51]: 26.2 µM (inactive) | GI50 [18]: 1.17 µM (inactive) | GI50 [52]: 18.2 µM (inactive) | GI50 [19]: 17 µM (inactive) | GI50 [20]: 1.65 µM | GI50 [21]: 16.8 µM (inactive) | GI50 [53]: 13.3 µM (inactive) | GI50 [23]: 2.85 µM (inactive) | GI50 [24]: 2.03 µM (inactive) | GI50 [54]: 7.55 µM (inactive) | GI50 [25]: 12.1 µM (inactive) | GI50 [26]: 1.71 µM (inactive) | GI50 [27]: 3.57 µM (inactive) | GI50 [55]: 13.4 µM (inactive) | GI50 [28]: 0.637 µM (active) | GI50 [29]: 12.4 µM (inactive) | GI50 [30]: 1.78 µM (inactive) | GI50 [31]: 0.287 µM (active) | GI50 [32]: 2.28 µM (inactive) | GI50 [33]: 5.82 µM (inactive) | GI50 [34]: 3.35 µM (inactive) | GI50 [36]: 4.93 µM (inactive) | GI50 [37]: 2.04 µM (inactive) | GI50 [38]: 10.4 µM (inactive) | GI50 [39]: 2.51 µM (inactive) | GI50 [40]: 13.1 µM (inactive) | GI50 [41]: 1.43 µM (inactive) | GI50 [42]: 4.89 µM (inactive) | GI50 [43]: 2.45 µM (inactive)
